Test results taken from ChEMBL document CHEMBL5725252, “Spirocyclic dihydro-thiazine and dihydro-oxazine BACE inhibitors, and compositions and uses thereof” (2016).

What was measured:
Beta-secretase 1 [1] = molecular target: T1, Beta-secretase 1 (Homo sapiens, UniProt P56817); assay: AlphaScreen Assay: BACE1 activity can be assessed in an AlphaScreen® assay. Compounds to be assessed (e.g. compounds as described in the above examples) are serially diluted 1:4 in DMSO, then plated by diluting 10 μL of compound with 40 μl of assay buffer (1×PBS, 0.01% Tween-20, pH 7.0, 0.05% BSA). The diluted compound is transferred (4 μL per well) to a […] well assay plate and 4 μL of BACE1 enzyme (20 mg/mL) is added and incubated for 15 minutes. This assay uses a probe that is a BACE1 binding sight ligand linked to biotin, which can be displaced by test compound dependent on compound binding affinity. This of biotinylated probe (4 μL) is added and incubated for 1 hour, followed with 4 μL of donor and acceptor bead mixture and incubated for 2 hours. The fluorescent signal is read on a plate reader and the value as a function of compound concentration is used to determine the IC50.
T1 sequence (P56817 whole entry): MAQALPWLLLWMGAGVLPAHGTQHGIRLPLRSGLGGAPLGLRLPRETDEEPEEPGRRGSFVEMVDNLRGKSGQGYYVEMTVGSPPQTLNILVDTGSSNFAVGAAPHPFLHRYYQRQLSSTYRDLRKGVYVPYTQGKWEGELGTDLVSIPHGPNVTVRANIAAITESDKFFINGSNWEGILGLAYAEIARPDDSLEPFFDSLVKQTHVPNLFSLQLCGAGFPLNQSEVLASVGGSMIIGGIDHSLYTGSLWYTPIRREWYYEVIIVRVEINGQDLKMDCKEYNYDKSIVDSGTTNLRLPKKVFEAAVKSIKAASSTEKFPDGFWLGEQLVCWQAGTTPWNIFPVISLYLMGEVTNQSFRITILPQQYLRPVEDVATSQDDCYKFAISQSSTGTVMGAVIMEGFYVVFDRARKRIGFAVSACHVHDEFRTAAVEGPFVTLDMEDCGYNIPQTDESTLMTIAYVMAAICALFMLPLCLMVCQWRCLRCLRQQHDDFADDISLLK

Beta-secretase 1 [2] = molecular target: T1, Beta-secretase 1; assay: FP Assay: Compounds are also assessed for BACE1 and Cathepsin D activity using an FP Assay. Compounds to be assessed (e.g. compounds as described in the above examples) are serially diluted 1:3 with DMSO and each concentration point is transferred to a 96 well plate, 6 uL per well, followed by addition of 194 uL of assay buffer (100 mM sodium acetate, pH 4.5 with 0.001% Tween-20). A 10 uL compound sample from this plate is transferred to a well of a 384 well plate and combined with 10 uL per well of BACE1 enzyme (0.3 nM in assay buffer) or Cathepsin D enzyme (1.8 nM in assay buffer) and the plate is incubated at room temperature for 30 minutes.

C[C@@]1(c2cc(/C=C/c3ccc(F)cc3)ccc2F)CC2(CCC(F)(F)CC2)OC(N)=N1
IC50 (Beta-secretase 1 [1]): 1.96 µM | IC50 (Beta-secretase 1 [2]): 13.1 µM
